The results in this text go back to ChEMBL document CHEMBL1909046, “DrugMatrix in vitro pharmacology data”.

The target in test [1] is 5-hydroxytryptamine receptor 6 (Homo sapiens, UniProt P50406). The format is cell membranes, HeLa, Membrane. As to conditions: for Ki: read-out: Ki.
Test [2] addresses Vasopressin V1a receptor (Homo sapiens, UniProt P37288). The format is cell membranes, Membrane. As to conditions: hek293.
Test [3] addresses C-C chemokine receptor type 5 (Homo sapiens, UniProt P51681). The format is cell membranes, HEK293, Membrane.
The target of test [4] is T1, Polyunsaturated fatty acid lipoxygenase ALOX15 (Oryctolagus cuniculus, UniProt P12530).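 Also: inhibition of 15-lipoxygenase enzyme activity measured with linoleic acid as the substrate.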
T1 sequence (P12530 whole entry): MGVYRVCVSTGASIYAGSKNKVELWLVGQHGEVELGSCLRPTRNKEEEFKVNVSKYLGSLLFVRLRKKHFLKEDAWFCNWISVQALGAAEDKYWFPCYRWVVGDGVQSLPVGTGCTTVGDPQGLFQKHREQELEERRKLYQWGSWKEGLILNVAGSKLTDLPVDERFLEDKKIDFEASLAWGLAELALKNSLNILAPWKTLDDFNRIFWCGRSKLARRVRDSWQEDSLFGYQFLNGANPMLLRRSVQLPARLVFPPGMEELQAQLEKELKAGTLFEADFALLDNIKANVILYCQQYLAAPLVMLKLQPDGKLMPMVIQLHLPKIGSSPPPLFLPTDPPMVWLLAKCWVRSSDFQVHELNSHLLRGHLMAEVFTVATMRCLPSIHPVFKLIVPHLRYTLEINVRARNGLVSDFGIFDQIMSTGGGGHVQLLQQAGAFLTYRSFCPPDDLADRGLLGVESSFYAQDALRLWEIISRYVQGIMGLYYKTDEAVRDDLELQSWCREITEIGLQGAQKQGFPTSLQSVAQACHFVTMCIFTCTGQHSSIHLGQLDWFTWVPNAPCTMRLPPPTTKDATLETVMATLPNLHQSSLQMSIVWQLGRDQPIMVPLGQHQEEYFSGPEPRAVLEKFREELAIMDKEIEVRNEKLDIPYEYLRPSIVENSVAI
Briefly: biochemical. The format is tissue-based, Reticulocytes.

For test [5], the target named is Tyrosine-protein kinase Fyn (Homo sapiens, UniProt P06241). Briefly: biochemical. The format is cell-based, Insect cells.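 Also: enzymatic inhibition of Fyn kinase activity measured with Poly(Glu:Tyr) as the phosphorylation substrate.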
The target in test [6] is T2, Adenosine receptor A3 (Homo sapiens, UniProt P0DMS8).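 Also: radioligand binding assay with AB-MECA serving as the labeled ligand.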
T2 sequence (P0DMS8 whole entry): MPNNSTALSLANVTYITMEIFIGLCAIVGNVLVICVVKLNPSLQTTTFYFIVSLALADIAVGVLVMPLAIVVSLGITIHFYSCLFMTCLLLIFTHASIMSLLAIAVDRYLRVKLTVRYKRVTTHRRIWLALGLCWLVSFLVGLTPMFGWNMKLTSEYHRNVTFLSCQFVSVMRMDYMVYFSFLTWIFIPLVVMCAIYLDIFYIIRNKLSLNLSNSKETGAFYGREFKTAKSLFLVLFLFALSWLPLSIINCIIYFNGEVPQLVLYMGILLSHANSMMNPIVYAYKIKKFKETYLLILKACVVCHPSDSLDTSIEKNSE
The format is cell membranes, CHO-K1, Membrane. As to conditions: for Ki: read-out: Ki.
Also: in other assays of this panel Not Active means under 50% inhibition at 10 µM.

Vasopressin V1a receptor, sequence (P37288 whole entry): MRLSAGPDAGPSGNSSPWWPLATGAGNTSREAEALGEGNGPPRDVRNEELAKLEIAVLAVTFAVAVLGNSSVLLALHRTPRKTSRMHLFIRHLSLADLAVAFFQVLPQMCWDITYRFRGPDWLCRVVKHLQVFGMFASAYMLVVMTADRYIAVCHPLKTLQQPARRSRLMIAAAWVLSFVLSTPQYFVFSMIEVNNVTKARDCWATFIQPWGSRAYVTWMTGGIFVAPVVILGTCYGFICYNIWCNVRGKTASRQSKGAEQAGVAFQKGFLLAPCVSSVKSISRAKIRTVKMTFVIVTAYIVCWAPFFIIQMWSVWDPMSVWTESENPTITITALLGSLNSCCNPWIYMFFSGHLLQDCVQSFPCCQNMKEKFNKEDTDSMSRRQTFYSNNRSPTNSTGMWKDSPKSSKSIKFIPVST
C-C chemokine receptor type 5, sequence (P51681 whole entry): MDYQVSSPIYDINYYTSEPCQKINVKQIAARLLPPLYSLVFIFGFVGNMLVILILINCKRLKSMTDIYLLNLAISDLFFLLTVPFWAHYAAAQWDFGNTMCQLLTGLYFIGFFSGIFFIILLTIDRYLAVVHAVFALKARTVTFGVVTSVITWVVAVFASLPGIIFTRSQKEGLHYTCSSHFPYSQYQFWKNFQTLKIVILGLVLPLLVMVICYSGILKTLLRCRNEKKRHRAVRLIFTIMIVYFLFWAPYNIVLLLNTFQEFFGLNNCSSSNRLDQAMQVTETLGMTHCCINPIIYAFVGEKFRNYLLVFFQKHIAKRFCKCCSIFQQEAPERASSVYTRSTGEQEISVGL
5-hydroxytryptamine receptor 6, sequence (P50406 whole entry): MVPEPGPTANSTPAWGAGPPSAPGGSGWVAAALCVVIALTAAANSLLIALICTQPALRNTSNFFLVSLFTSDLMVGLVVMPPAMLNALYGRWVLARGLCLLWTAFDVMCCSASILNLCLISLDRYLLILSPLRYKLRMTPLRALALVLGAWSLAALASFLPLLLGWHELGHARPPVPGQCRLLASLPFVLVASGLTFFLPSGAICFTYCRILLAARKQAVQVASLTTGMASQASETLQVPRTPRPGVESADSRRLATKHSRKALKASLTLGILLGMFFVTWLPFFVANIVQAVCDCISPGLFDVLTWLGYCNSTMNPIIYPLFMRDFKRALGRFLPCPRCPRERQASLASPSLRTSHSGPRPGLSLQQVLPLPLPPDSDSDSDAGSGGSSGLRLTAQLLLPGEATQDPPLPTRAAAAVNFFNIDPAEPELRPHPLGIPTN
Tyrosine-protein kinase Fyn, sequence (P06241 whole entry): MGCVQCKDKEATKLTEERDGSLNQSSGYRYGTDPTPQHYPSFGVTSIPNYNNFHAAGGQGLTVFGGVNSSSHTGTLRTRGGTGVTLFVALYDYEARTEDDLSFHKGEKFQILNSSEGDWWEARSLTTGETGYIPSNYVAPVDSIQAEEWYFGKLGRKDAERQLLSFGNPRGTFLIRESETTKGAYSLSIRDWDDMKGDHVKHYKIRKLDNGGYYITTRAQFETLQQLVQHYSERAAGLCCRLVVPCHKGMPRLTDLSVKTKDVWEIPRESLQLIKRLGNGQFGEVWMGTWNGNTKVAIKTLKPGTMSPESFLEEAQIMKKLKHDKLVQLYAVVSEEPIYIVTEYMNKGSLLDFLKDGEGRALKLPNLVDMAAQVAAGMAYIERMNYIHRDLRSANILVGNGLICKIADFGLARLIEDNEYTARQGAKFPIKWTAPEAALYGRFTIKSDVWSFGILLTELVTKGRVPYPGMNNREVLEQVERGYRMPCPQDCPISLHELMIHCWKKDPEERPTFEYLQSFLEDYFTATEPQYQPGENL

As to `CC[C@H](C)[C@@H](CO[C@@H](Cc1ccccc1)C(=O)N[C@@H](CCS(C)(=O)=O)C(=O)OC(C)C)NC[C@@H](N)CS`, the IC50 result in test [1] (hela) is “Not Active”; in test [2], “Not Active”; in test [3] (hek293) it was “Not Active”; in test [4] (reticulocytes), “Not Active”; in test [5] (read-out: IC50) it was 0.813 µM; in test [6] (cho-k1), “Not Active”.

Turning to `Nc1nc(N)c2nc(-c3ccccc3)c(N)nc2n1`, the IC50 result in test [1] (hela), in test [2], in test [3] (hek293), in test [4] (reticulocytes), in test [5] (insect cells) and in test [6] (cho-k1) was “Not Active” throughout.

Turning to `CCN(CC)C(=S)SSC(=S)N(CC)CC`, the IC50 in test [1] (read-out: IC50) was 16000 nM; in test [2], “Not Active”; in test [3] (read-out: IC50), 23.7 µM; in test [4] (read-out: IC50) it was 16100 nM; in test [5] (insect cells), “Not Active”; in test [6] (read-out: IC50) it was 356 nM. In addition, the Ki is 7430 nM in test [1], 18.3 µM in test [3] (read-out: Ki) and 201 nM in test [6].

Regarding `CN(C)CCC=C1c2ccccc2COc2ccccc21` [DOXEPIN], the IC50 entry in test [2], in test [3] (hek293), in test [4] (reticulocytes), in test [5] (insect cells) and in test [6] (cho-k1) was “Not Active” each time.

As for `O=C(c1ccccc1)c1ccc2n1CCC2C(=O)O` (centres undefined) [KETOROLAC], the 50% inhibitory concentration (IC50) entry in test [1] (hela), in test [2], in test [3] (hek293), in test [4] (reticulocytes), in test [5] (insect cells) and in test [6] (cho-k1) was “Not Active” throughout.

Consider `CCOC(=O)C1=C(C)NC(C)=C(C(=O)OCC)C1c1ccccc1/C=C/C(=O)OC(C)(C)C` [LACIDIPINE], for which the IC50 result in test [1] (hela) is “Not Active”; in test [2] it was “Not Active”; in test [3] (hek293), “Not Active”; in test [4] (reticulocytes), “Not Active”; in test [5] (insect cells), “Not Active”; in test [6] (read-out: IC50) it was 4040 nM. In test [6], the Ki was 2280 nM.

`CC(O)C(=O)O` (centres undefined) [LACTIC ACID]: the 50% inhibitory concentration (IC50) entry in test [1] (hela), in test [2], in test [3] (hek293), in test [4] (reticulocytes), in test [5] (insect cells) and in test [6] (cho-k1) was “Not Active” each time.

Take `CC(C)(C)NC[C@H](O)COc1cccc2c1CCCC2=O` [LEVOBUNOLOL]: the IC50 result in test [1] (hela), in test [2], in test [3] (hek293), in test [4] (reticulocytes), in test [5] (insect cells) and in test [6] (cho-k1) was “Not Active” throughout.

Regarding `CO[C@@H]1[C@@H](OC)[C@H](C)[C@@](O)(CC(=O)O)O[C@H]1[C@H](C)[C@H]1O[C@@]2(CC[C@@](C)([C@H]3CC[C@@](C)([C@@H]4O[C@@H]([C@H]5O[C@](C)(O)[C@H](C)C[C@@H]5C)C[C@@H]4O[C@@H]4C[C@H](OC)[C@@H](OC)[C@H](C)O4)O3)O2)C[C@H](O)[C@H]1C.N` [MADURAMICIN], the IC50 entry in test [1] (hela), in test [2], in test [3] (hek293), in test [4] (reticulocytes), in test [5] (insect cells) and in test [6] (cho-k1) was “Not Active” each time.

Turning to `OC[C@@H](O)[C@@H](O)[C@H](O)[C@H](O)CO` [MANNITOL], the concentration for half-maximal inhibition (IC50) result in test [1] (hela), in test [2], in test [3] (hek293), in test [4] (reticulocytes), in test [5] (insect cells) and in test [6] (cho-k1) was “Not Active” in each case.

With `CNCCCC12CCC(c3ccccc31)c1ccccc12` [MAPROTILINE], the IC50 is 892 nM in test [1] (read-out: IC50); “Not Active” in test [2]; “Not Active” in test [3] (hek293); “Not Active” in test [4] (reticulocytes); “Not Active” in test [5] (insect cells); “Not Active” in test [6] (cho-k1). In test [1], the inhibition constant Ki was determined as 414 nM.

In the case of `COC(=O)Nc1nc2ccc(C(=O)c3ccccc3)cc2[nH]1` [MEBENDAZOLE], the concentration for half-maximal inhibition (IC50) result in test [1] (hela), in test [2], in test [3] (hek293), in test [4] (reticulocytes), in test [5] (insect cells) and in test [6] (cho-k1) was “Not Active” in each case.

In the case of `Cc1ccc(Cl)c(Nc2ccccc2C(=O)O)c1Cl` [MECLOFENAMIC ACID], the half-inhibitory concentration (IC50) entry in test [1] (hela), in test [2], in test [3] (hek293), in test [4] (reticulocytes), in test [5] (insect cells) and in test [6] (cho-k1) was “Not Active” in each case.

`CC(=O)O[C@]1(C(C)=O)CC[C@H]2[C@@H]3C[C@H](C)C4=CC(=O)CC[C@]4(C)[C@H]3CC[C@@]21C` [MEDROXYPROGESTERONE ACETATE]: the IC50 entry in test [1] (hela), in test [2], in test [3] (hek293), in test [4] (reticulocytes), in test [5] (insect cells) and in test [6] (cho-k1) was “Not Active” in each case.

Regarding `Cc1cnc(NC(=O)C2=C(O)c3ccccc3S(=O)(=O)N2C)s1` [MELOXICAM], the concentration for half-maximal inhibition (IC50) result in test [1] (hela), in test [2], in test [3] (hek293), in test [4] (reticulocytes), in test [5] (insect cells) and in test [6] (cho-k1) was “Not Active” in each case.

In the case of `CN1C[C@H](CNC(=O)OCc2ccccc2)C[C@@H]2c3cccc4c3c(cn4C)C[C@H]21` [METERGOLINE], the IC50 in test [1] (read-out: IC50) is 28 nM; in test [2] it was “Not Active”; in test [3] (hek293), “Not Active”; in test [4] (reticulocytes) it was “Not Active”; in test [5] (insect cells) it was “Not Active”; in test [6] (cho-k1) it was “Not Active”. Besides, the Ki in test [1] turned out to be 13 nM.

For the compound `C[N+]1(C)[C@@H]2C[C@@H](OC(=O)[C@H](CO)c3ccccc3)C[C@H]1[C@@H]1O[C@@H]12.[Br-]` [METHSCOPOLAMINE BROMIDE], the IC50 result in test [1] (hela), in test [2], in test [3] (hek293), in test [4] (reticulocytes), in test [5] (insect cells) and in test [6] (cho-k1) was “Not Active” each time.

Regarding `CCN(CC)CCNC(=O)c1cc(Cl)c(N)cc1OC` [METOCLOPRAMIDE], the concentration for half-maximal inhibition (IC50) result in test [1] (hela), in test [2], in test [3] (hek293), in test [4] (reticulocytes), in test [5] (insect cells) and in test [6] (cho-k1) was “Not Active” in each case.

On to `CC[C@H](C)C(=O)O[C@H]1CCC=C2C=C[C@H](C)[C@H](CC[C@@H]3C[C@@H](O)CC(=O)O3)[C@H]21` [MEVASTATIN], for which the concentration for half-maximal inhibition (IC50) entry in test [1] (hela), in test [2], in test [3] (hek293), in test [4] (reticulocytes), in test [5] (insect cells) and in test [6] (cho-k1) was “Not Active” in each case.

`CC#C[C@]1(O)CC[C@H]2[C@@H]3CCC4=CC(=O)CCC4=C3[C@@H](c3ccc(N(C)C)cc3)C[C@@]21C` [MIFEPRISTONE]: the IC50 entry in test [1] (hela) is “Not Active”; in test [2], “Not Active”; in test [3] (hek293), “Not Active”; in test [4] (read-out: IC50), 555 nM; in test [5] (read-out: IC50) it was 21.4 µM; in test [6] (cho-k1), “Not Active”.

For `Cc1[nH]c(=O)c(C#N)cc1-c1ccncc1` [MILRINONE], the IC50 entry in test [1] (hela), in test [2], in test [3] (hek293), in test [4] (reticulocytes), in test [5] (insect cells) and in test [6] (cho-k1) was “Not Active” in each case.

As to `CO[C@@]12[C@H](COC(N)=O)C3=C(C(=O)C(C)=C(N)C3=O)N1C[C@@H]1N[C@@H]12` [MITOMYCIN], the IC50 result in test [1] (hela), in test [2], in test [3] (hek293), in test [4] (reticulocytes), in test [5] (insect cells) and in test [6] (cho-k1) was “Not Active” in each case.

In the case of `CCOc1cc(N)c(Cl)cc1C(=O)NCC1CN(Cc2ccc(F)cc2)CCO1` (centres undefined) [MOSAPRIDE], the IC50 entry in test [1] (hela), in test [2], in test [3] (hek293), in test [4] (reticulocytes), in test [5] (insect cells) and in test [6] (cho-k1) was “Not Active” throughout.

`CCN(CC)N=O` [N-NITROSODIETHYLAMINE]: the half-inhibitory concentration (IC50) result in test [1] (hela), in test [2], in test [3] (hek293), in test [4] (reticulocytes), in test [5] (insect cells) and in test [6] (cho-k1) was “Not Active” each time.

As to `Cc1cc2c(s1)Nc1ccccc1N=C2N1CCN(C)CC1` [OLANZAPINE], the IC50 entry in test [2] is “Not Active”; in test [3] (hek293), “Not Active”; in test [4] (read-out: IC50) it was 2770 nM; in test [5] (insect cells), “Not Active”; in test [6] (cho-k1), “Not Active”.

Broadly, the IC50 is the concentration at which inhibition is half-maximal. In general, Ki refers to a dissociation constant, usually derived from enzyme kinetics or from competition with a known ligand.
